Assay results as given in patent publication EP2488183B1, “Composition for inhibiting TGF-beta comprising imidazopurine derivatives” (Korea Institute of Radiological & Medical Sciences, priority 2009, dated 2011).

Key:
[1] = test system: TGF-β; experiment: TGF-β inhibitor screening, 3TP-pGL2 luciferase reporter in transformed HEK 293 cells; type: cell-based, human; conditions: compound added 2 h before 0.5 ng/ml TGF-β, FIGS. 3a, 3b
Description: In order to screen an agent for inhibiting TGF-β cells stably transformed by luciferase-expressing plasmids were used to measure an effect on TGF-β activity.
A plasmid with a Smad binding site and a […] activator inhibitor (PAI) promoter, obtained from professor Carlos Arteaga at the University of Vanderbilt in US, was inserted into pGL2-Null reporter plasmid (Promega, U.S.A.). […] The plasmid was used to transform human embryonic kidney (HEK) 293 cells according to the manufacturer s specification, using Lipofectamine 2000 (Invitrogen, Calsbad, CA, USA), thereby constructing a system for screening an effect on TGF-β activity by measuring luciferase activity. The activity of luciferase was measured using a Dual Luciferase Assay kit (Promega, Medison, WI, USA). […]
The HEK 293 cells transformed were inoculated into a 96-well plate at 20,000 cells/ well in triplicates and then incubated under the condition as described above for 24 hours. Then, TGF-β was added thereto at concentrations of 0.5, 1, and 5 ng/ml and after 15-hour incubation, luciferase activity was measured. […]
By using the screening system as described above, a TGF-β inhibition effect was tested on 8,000 compounds in a compound library. […] Then, the luciferase activity was measured as described above. […]

[2] = test system: HSC-T6 cells; experiment: Western blotting of fibrosis markers in TGF-β-treated hepatic stellate cells; type: cell-based, human; conditions: HSC-T6, 0, 1, 5 and 10 µM added 2 h before TGF-β (5 ng/ml), 24 h; FIGS. 6a, 6b
Protocol: In addition, levels of α-smooth muscle actin (α-SMA) and extracellular matrix material fibronectin, which are typically used as a fibrosis molecular marker to identify fibrosis of hepatic stellate cells, were measured by western blotting. Two hours before the treatment with TGF-β(5 ng/ml), each of compounds I and II was added at a varying concentration (0, 1, 5 and 10 µM) to the HSC-T6 cells incubated under the conditions described above, and then, the HSC-T6 cells were incubated under 5% CO2, and at a temperature of 37°C. After 24-hour incubation, the HSC-T6 cells were dissolved in a RIPA buffer solution (50 mM Tris-Cl (pH7.4), 1% NP-40, 150 mM NaCl, 1 mM EDTA) including a protease inhibitor (1 mM PMSF, […] aprotinin, […] leupeptin, and 1 mM Na3VO4) to prepare cytoplasm fractions, and 4-12% gradient SDS-PAGE (Invitrogen) was performed on the cytoplasmic fractions to separate proteins. The proteins separated on the SDS-PAGE gel were transferred to a nitrocellulose membrane (BioRad, Hercules, CA, USA) and the membrane was blocked with 5% skim milk. Then, the membrane was treated with an anti-α-SMA antibody (Sigma, U.S.A.), an anti-fibronectin antibody (Santa Cruz, U.S.A.), and an anti-GAPDH antibody (Ab Frontier, Korea). […]

[3] = test system: RAW 264.7 cell; experiment: RT-PCR of pro-inflammatory cytokine and iNOS mRNA in macrophages stimulated by LPS; type: cell-based, mouse; conditions: RAW 264.7, compound 2 h before 1 µg/ml LPS, 6 h; FIG. 8
Protocol: A macrophage is a front-line immune cell that is responsible for an initial immune response to various antigens and causes a strong inflammation reaction. RAW 264.7 cell, a mouse macrophage strain, was purchased from American Type Culture Collection (ATCC, U.S.A.), and incubated under 5% CO2 and at a temperature of 37°C in a Dulbecco's modified Eagle's medium (DMEM) supplemented with 10% FBS serum, 100 units/ml of penicillin, and 100 µg/ml of streptomycin. […] of compound I or II was added to the incubated cells and then, two hours later, the cells were treated with 1 µg/ml lipopolysaccharide (LPS), which is a cell wall component of a gram negative bacteria and incubated further for 6 hours. Then, the cells were collected and the total RNA thereof was isolated using TRIzol and quantified. Out of the total RNA, 1 µg of RNA was used to synthesize cDNA using a reverse transcriptase. Then, a polymerase chain reaction (PCR) was performed using the cDNA as a template to identify expression levels of cytokines. In detail, PCR was performed in the presence of a DNA polymerase using the cDNA as a template to amplify IL-1β, IL-6, and TNF-α which are pro-inflammatory cytokines, iNOS, nitric oxide synthase, and β-actin used as a control group with a cycle consisting of 30 seconds at a temperature of 94°C, 45 seconds at a temperature of 55°C, and 45 seconds at a temperature of 72°C repeated 30 times. Primers set forth in SEQ ID. NOs: 1 through 10 shown in Table 1 were used to amplify IL-1β, IL-6, TNF-α, iNOS and β-actin, respectively. Table 1 [Table 1]
The amplification product of PCR was subjected to electrophoresis on 1% agarose gel in which ethidium bromide (dye) was present so as to measure mRNA expression levels of the cytokines. FIGS. 8a and 8b show changes in the amounts of the pro-inflammatory cytokines caused by compounds I and II, respectively.

[4] = test system: H1299; experiment: Apoptosis of lung cancer cells alone or with doxorubicin, CCK-8 viability assay; type: cell-based; conditions: 48 h; for apoptosis effect together with doxorubicin: H1299, compound added 2 h before doxorubicin 0.05 µM; for apoptosis: H1299, compound alone at 5 µM or more, FIGS. 9a, 9c
Protocol: TGF-βis known to have contrasting effects related to a tumor. That is, at an initial stage, TGF-β suppresses tumor growth, but at a latter stage, promotes metastasis or infiltration of a tumor. Thus, apoptosis of tumor cell lines caused by compound I and II, and apoptosis of tumor cell lines caused by compound I or II in combination with doxorubicin, an anti-cancer agent, were measured. […] The tumor cells were treated with compound I or II at the concentrations shown in FIG. 9, and 2 hours later, doxorubicin was added thereto. Then, the cells were incubated for 48 hours under the conditions described above and then, quantified using a CCK-8 viability assay kit (Dojindo, Japan).

| SMILES | TGF-β activity (luciferase activity) [1] | expression of α-SMA and fibronectin (fibrosis markers) [2] | IL-1 mRNA expression [3] | expression of TNF-α [3] | iNOS mRNA expression [3] | apoptosis effect together with doxorubicin [4] | apoptosis [4] | IL-6 mRNA expression [3] |
| --- | --- | --- | --- | --- | --- | --- | --- | --- |
| Cc1cn2c(nc3c2c(=O)n(Cc2ccccc2Cl)c(=O)n3C)[nH]1 [compound I, 3-(2-chlorobenzyl)-1,7-dimethyl-1H-imidazo[2,1-f]purine-2,4(3H,8H)-dion] | inhibit TGF-β activity in a concentration-dependent way | concentration-dependently reduced | significantly inhibited | slightly reduced | significantly inhibited | additive or synergistic apoptosis effects | apoptosis occurred | – |
| Cc1[nH]c2nc3c(c(=O)n(Cc4c(F)cccc4Cl)c(=O)n3C)n2c1C [compound II, 3-(2-chloro-6-fluorobenzyl)-1,6,7-trimethyl-1H-imidazo[2,1-f]purine-2,4(3H,8H)-dion] | inhibit TGF-β activity in a concentration-dependent way | significantly reduced fibrosis markers | – | slightly reduced | distinctively reduced | additive or synergistic apoptosis effects | apoptosis occurred | distinctively reduced |
